Reference: ChEMBL document CHEMBL1201862, “PubChem BioAssay data set” (2004)
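Growth conditions: 96-well plates. Treatment: test compound, 48 hours, 5 concentrations. Analysis: linear interpolation between bracketing concentrations; unreached endpoints set to highest concentration. The concentration for 50% growth inhibition is given as GI50.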 Activity calls are given as the source filed them. Rule as the data show it: active = GI50 up to about 1.1 µM and inactive = higher. Peptide text beside a SMILES is read from it. * marks the point of attachment. OSu = O=C1CCC(=O)N1O*

Key:
Experiment in all cases: NCI tumour cell line growth inhibition, 48 h
M14 = test system: M14
U-251 = test system: U-251
OVCAR-3 = test system: OVCAR-3
Hs-578T = test system: Hs-578T
HT-29 = test system: HT-29
SW-620 = test system: SW-620
A549 = test system: A549
DU-145 = test system: DU-145
786-0 = test system: 786-0
Malme-3M = test system: Malme-3M
KM12 = test system: KM12
NCI/ADR-RES = test system: NCI/ADR-RES
HOP-62 = test system: HOP-62
NCI-H23 = test system: NCI-H23
COLO 205 = test system: COLO 205
NCI-H226 = test system: NCI-H226
BT-549 = test system: BT-549
PC-3 = test system: PC-3
T47D = test system: T47D
MDA-N = test system: MDA-N

| Structure (SMILES) | GI50 (M14) | GI50 (U-251) | GI50 (OVCAR-3) | GI50 (Hs-578T) | GI50 (HT-29) | GI50 (SW-620) | GI50 (A549) | GI50 (DU-145) | GI50 (786-0) | GI50 (Malme-3M) | GI50 (KM12) | GI50 (NCI/ADR-RES) | GI50 (HOP-62) | GI50 (NCI-H23) | GI50 (COLO 205) | GI50 (NCI-H226) | GI50 (BT-549) | GI50 (PC-3) | GI50 (T47D) | GI50 (MDA-N) |
| --- | --- | --- | --- | --- | --- | --- | --- | --- | --- | --- | --- | --- | --- | --- | --- | --- | --- | --- | --- | --- |
| OC1(c2ccccc2)CC2CCC(C1)N2CCCC(O)(c1ccccc1)c1ccccc1 (configuration not stated) | 16.4 µM (inactive) | 15.1 µM (inactive) | 16.4 µM (inactive) | 4.83 µM (inactive) | 2.78 µM (inactive) | 7.33 µM (inactive) | 17.1 µM (inactive) | 21.4 µM (inactive) | 12.5 µM (inactive) | 15.9 µM (inactive) | 15.3 µM (inactive) | 17.7 µM (inactive) | 15.5 µM (inactive) | 11.9 µM (inactive) | 10.5 µM (inactive) | 12.4 µM (inactive) | 13 µM (inactive) | 3.44 µM (inactive) | 21.3 µM (inactive) |  |
| N#Cc1ccc(OCc2ccc3nc(-c4ccccc4)c(Cl)nc3c2)cc1 | > 100 µM (inactive) | 72.1 µM (inactive) | > 100 µM (inactive) | > 100 µM (inactive) | > 100 µM (inactive) | > 100 µM (inactive) | > 100 µM (inactive) | > 100 µM (inactive) | 54 µM (inactive) | > 100 µM (inactive) | > 100 µM (inactive) | > 100 µM (inactive) | 42.7 µM (inactive) | > 100 µM (inactive) | > 100 µM (inactive) |  | > 100 µM (inactive) | > 100 µM (inactive) | > 100 µM (inactive) | > 100 µM (inactive) |
| CC1=C(C(=O)OCc2ccncc2)C(C2=C(C)SCCS2)C(C(=O)OCc2ccncc2)=C(C)N1 | 28.7 µM (inactive) | 16.7 µM (inactive) | 19.3 µM (inactive) | 10.6 µM (inactive) | 17.9 µM (inactive) | 25.6 µM (inactive) | 33.3 µM (inactive) | 29.4 µM (inactive) | 28.6 µM (inactive) |  | 21.3 µM (inactive) | 37.4 µM (inactive) | 21.7 µM (inactive) | 24.2 µM (inactive) | 22.2 µM (inactive) | 18.5 µM (inactive) | 20.4 µM (inactive) | 20.9 µM (inactive) | 16.1 µM (inactive) | 30.5 µM (inactive) |
| C#CC1(OC(C)=O)CCC2C3CC=C4C=C(OC(C)=O)CCC4(C)C3CCC21C (configuration not stated) | 26.7 µM (inactive) | 19.5 µM (inactive) | 20 µM (inactive) | 40.4 µM (inactive) | 17.2 µM (inactive) | 23.4 µM (inactive) | 31.6 µM (inactive) | 31.1 µM (inactive) | 30.3 µM (inactive) | 18 µM (inactive) | 20.4 µM (inactive) | 26.9 µM (inactive) | 44.9 µM (inactive) | 18.3 µM (inactive) | 16.2 µM (inactive) | 24.8 µM (inactive) | 31.8 µM (inactive) |  | 61.5 µM (inactive) |  |
| COc1ccc2c(c1)[n+]([O-])c1cc(C#N)ccc1[n+]2[O-] | 0.33 µM (active) | 3.72 µM (inactive) | 5.83 µM (inactive) | 2.07 µM (inactive) | 2.87 µM (inactive) | 4.34 µM (inactive) | 0.378 µM (active) | 1.1 µM (active) | 13.6 µM (inactive) | 2.58 µM (inactive) | 2.38 µM (inactive) | 15.5 µM (inactive) | 2.11 µM (inactive) | 0.849 µM (active) | 0.586 µM (active) | 3.78 µM (inactive) | 10.2 µM (inactive) | 2.43 µM (inactive) | 11.7 µM (inactive) |  |
| NCCCCC(NC(=O)C(N)Cc1ccc(O)cc1)C(=O)NC(CCCCN)C(=O)NC(CCCCN)C(=O)ON1C(=O)CCC1=O (configuration not stated) (H-YKKK-OSu; configuration not given here) | > 100 µM (inactive) | > 100 µM (inactive) |  | > 100 µM (inactive) | > 100 µM (inactive) | > 100 µM (inactive) | > 100 µM (inactive) |  | > 100 µM (inactive) | > 100 µM (inactive) | > 100 µM (inactive) |  | > 100 µM (inactive) | > 100 µM (inactive) | > 100 µM (inactive) | > 100 µM (inactive) | > 100 µM (inactive) | > 100 µM (inactive) | 49.5 µM (inactive) | > 100 µM (inactive) |
| CSC1=C(c2ccc(Cl)cc2)SC(N2CCCCC2)N1c1ccc([N+](=O)[O-])cc1 (configuration not stated) | 18.5 µM (inactive) | 21.4 µM (inactive) | 21.8 µM (inactive) | 47.9 µM (inactive) | 30.6 µM (inactive) | 38.7 µM (inactive) | 29.2 µM (inactive) |  | 31.6 µM (inactive) | 45.2 µM (inactive) | 31 µM (inactive) | 26.7 µM (inactive) | 20 µM (inactive) | 23 µM (inactive) | 27.1 µM (inactive) | 76.9 µM (inactive) | 27.3 µM (inactive) | 18.5 µM (inactive) | 23.9 µM (inactive) | 39.4 µM (inactive) |
| O=C(OCc1ccccc1)c1nc2ccccc2n1S(=O)(=O)c1ccccc1 | > 100 µM (inactive) | > 100 µM (inactive) | > 100 µM (inactive) | > 100 µM (inactive) | > 100 µM (inactive) | > 100 µM (inactive) | > 100 µM (inactive) | > 100 µM (inactive) | > 100 µM (inactive) | 88.9 µM (inactive) | > 100 µM (inactive) | > 100 µM (inactive) | > 100 µM (inactive) | > 100 µM (inactive) | 88.7 µM (inactive) | > 100 µM (inactive) | > 100 µM (inactive) | > 100 µM (inactive) | 59.2 µM (inactive) |  |
| CN(C)C(=O)C(NCCO)c1ccccc1 (configuration not stated) | > 100 µM (inactive) | 90.6 µM (inactive) | 62.1 µM (inactive) | > 100 µM (inactive) | 57.7 µM (inactive) | > 100 µM (inactive) | > 100 µM (inactive) | > 100 µM (inactive) | > 100 µM (inactive) |  | 85.7 µM (inactive) |  | > 100 µM (inactive) | 83 µM (inactive) | > 100 µM (inactive) | > 100 µM (inactive) | > 100 µM (inactive) | 89.1 µM (inactive) | 53.3 µM (inactive) | > 100 µM (inactive) |
| CCOC(=O)c1csc(C(CSCc2ccc(OC)cc2)N2C(=O)c3ccccc3C2=O)n1 (configuration not stated) | > 100 µM (inactive) | > 100 µM (inactive) | > 100 µM (inactive) | > 100 µM (inactive) | 87.7 µM (inactive) | 50.2 µM (inactive) | > 100 µM (inactive) | > 100 µM (inactive) | 88.1 µM (inactive) | > 100 µM (inactive) | > 100 µM (inactive) | > 100 µM (inactive) | > 100 µM (inactive) | > 100 µM (inactive) | > 100 µM (inactive) | > 100 µM (inactive) | > 100 µM (inactive) | > 100 µM (inactive) | 69.2 µM (inactive) |  |
| COC(=O)/C(=N\N)C(C(=O)C(=O)Nc1cc(Cl)ccc1Cl)c1nc2ccc([N+](=O)[O-])cc2nc1O (configuration not stated) | > 100 µM (inactive) | > 100 µM (inactive) | 74.3 µM (inactive) | 47.9 µM (inactive) | > 100 µM (inactive) | > 100 µM (inactive) | > 100 µM (inactive) |  | > 100 µM (inactive) | > 100 µM (inactive) | > 100 µM (inactive) | > 100 µM (inactive) | > 100 µM (inactive) | > 100 µM (inactive) |  | > 100 µM (inactive) | > 100 µM (inactive) | > 100 µM (inactive) | > 100 µM (inactive) | > 100 µM (inactive) |
| O=C(Nc1nnc(-c2c(Cl)c(Cl)c(Cl)c(Cl)c2-c2nc3cc(C(=O)c4ccccc4)ccc3[nH]2)o1)c1ccc(Cl)cc1 | 35.5 µM (inactive) | 32 µM (inactive) | 13.8 µM (inactive) |  | 37.9 µM (inactive) | 57 µM (inactive) | 25.6 µM (inactive) | 58.6 µM (inactive) | 30.3 µM (inactive) |  | 43.5 µM (inactive) | 26.7 µM (inactive) | 12.8 µM (inactive) | 26.8 µM (inactive) | 15.5 µM (inactive) | 26.4 µM (inactive) | 41.9 µM (inactive) | 25.1 µM (inactive) | 30.5 µM (inactive) | 5.89 µM (inactive) |
| CCN(CC)CCCC(C)Nc1ccnc2cc3ccccc3cc12 (configuration not stated) | 14.6 µM (inactive) | 5.75 µM (inactive) | 6.05 µM (inactive) | 36.5 µM (inactive) |  | 6.19 µM (inactive) | 7.03 µM (inactive) | > 100 µM (inactive) | 8.41 µM (inactive) | 19.7 µM (inactive) | 4.95 µM (inactive) | 10.1 µM (inactive) | 12.4 µM (inactive) | 14.3 µM (inactive) | 3.3 µM (inactive) | 20.9 µM (inactive) | 8.59 µM (inactive) | 12.9 µM (inactive) | 12.8 µM (inactive) |  |
| CC(C)(C)OC(=O)N(CCNS(=O)(=O)c1cccc2cnccc12)CCC(=O)ON1C(=O)CCC1=O | > 100 µM (inactive) | > 100 µM (inactive) | > 100 µM (inactive) | > 100 µM (inactive) | > 100 µM (inactive) | > 100 µM (inactive) | > 100 µM (inactive) | > 100 µM (inactive) | > 100 µM (inactive) | > 100 µM (inactive) |  | > 100 µM (inactive) | > 100 µM (inactive) | > 100 µM (inactive) | > 100 µM (inactive) | > 100 µM (inactive) | > 100 µM (inactive) | > 100 µM (inactive) | > 100 µM (inactive) |  |
| COc1cc(C2c3cc4c(cc3OC(N3CCOCC3)C2C)OCO4)ccc1O (configuration not stated) | 6.34 µM (inactive) | 14.5 µM (inactive) | 7.62 µM (inactive) | 6.55 µM (inactive) | 23.4 µM (inactive) | 6.3 µM (inactive) | 13.4 µM (inactive) | 28.7 µM (inactive) | 18.4 µM (inactive) | 10.9 µM (inactive) | 7.83 µM (inactive) | 5.96 µM (inactive) | 11.7 µM (inactive) | 28.6 µM (inactive) | 25.3 µM (inactive) |  | 10.3 µM (inactive) | 7.28 µM (inactive) | 10.3 µM (inactive) | 1.76 µM (inactive) |
